Experimental data from US20250145665A1, “MACROCYCLIC PEPTIDES USEFUL AS MODULATORS OF TNF ALPHA” (Bristol-Myers Squibb Company, priority 2023, published 2025).
Starred links: 1 amine or outer side, 2 acyl side, 3 side chain; linkers in the order of their positions; H or OH if unused. Positions of bridges follow the written chain, without caps; N, C: chain ends. Non-standard residues stand in square brackets, D forms with d. Residues, ends and D or L forms follow the SMILES beside them. *: point of attachment. Bip(4'-NHCO-C6H4-3-CH2COOH) = N[C@@H](Cc1ccc(-c2ccc(NC(=O)c3cccc(CC(=O)O)c3)cc2)cc1)C(=O)O; Bip(4'-NHBz) = N[C@@H](Cc1ccc(-c2ccc(NC(=O)c3ccccc3)cc2)cc1)C(=O)O; Bip(4'-NH) = O=C([C@H](Cc1ccc(-c2ccc(N[*:3])cc2)cc1)N[*:1])[*:2]; dArg(ω-Bn(3-CH2OH)) = N=C(NCCC[C@@H](N)C(=O)O)NCc1cccc(CO)c1; Indazole3carbonyl(1-CH2COOH) = O=C(O)Cn1nc(C(=O)*)c2ccccc21; Bip(4'-COOH) = N[C@@H](Cc1ccc(-c2ccc(C(=O)O)cc2)cc1)C(=O)O; X28 = N=C(NCCC[C@@H](N[*:1])C(=O)[*:2])NCc1ccc(CN)cc1; X7 = N=C(NCCC[C@@H](N[*:1])C(=O)[*:2])NCc1ccc2occc2c1; Ala(morpholin-4-yl) = N[C@@H](CN1CCOCC1)C(=O)O; Benzoyl(3-OCH2COOH) = O=C(O)COc1cccc(C(=O)*)c1; Benzoyl(4-OCH2COOH) = O=C(O)COc1ccc(C(=O)*)cc1; Bip = N[C@@H](Cc1ccc(-c2ccccc2)cc1)C(=O)O; 2Pal = N[C@@H](Cc1ccccn1)C(=O)O; Cha = N[C@@H](CC1CCCCC1)C(=O)O; X62 = COC(=O)Cc1cccc(C(=O)*)c1; Chg = N[C@H](C(=O)O)C1CCCCC1; Tle = CC(C)(C)[C@H](N)C(=O)O; Sar = CNCC(=O)O

Biological target: TNFα (Homo sapiens, UniProt P01375)
Sequence (P01375 77-233 limits assumed): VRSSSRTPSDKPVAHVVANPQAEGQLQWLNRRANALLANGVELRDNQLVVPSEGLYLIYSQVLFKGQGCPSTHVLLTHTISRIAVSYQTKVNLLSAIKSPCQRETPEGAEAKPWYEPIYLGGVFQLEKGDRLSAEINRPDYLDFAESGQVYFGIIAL
Assay: TNF-Induced HEK-Blue Assay
Type: cell-based
Conditions: not given

Row | SMILES | IC50
1 | CC[C@H](C)[C@@H]1NC(=O)[C@@H](CCCNC(=N)N)NC(=O)[C@H](CC(=O)O)NC(=O)[C@H](Cc2cnc[nH]2)NC(=O)CN(C)C(=O)[C@H](Cc2ccc(-c3ccc(NC(=O)c4ccccc4)cc3)cc2)NC(=O)[C@H](Cc2ccc(-c3ccccc3)cc2)NC(=O)[C@H](CC2CCCCC2)NC(=O)CSC[C@@H](C(=O)NCC(N)=O)NC(=O)[C@H](CC(C)C)NC(=O)[C@H](Cc2cnc[nH]2)NC(=O)[C@H](C2CCCCC2)NC(=O)[C@@H]2CCCN2C1=O [Example 490] ({CH2CO}-[Cha][Bip][Bip(4'-NHBz)][Sar]HD[dR]IP[Chg]HLCG-NH2; thioether N-13) | 50 to 200 nM
2 | CC(C)C[C@@H]1NC(=O)[C@H](Cc2cnc[nH]2)NC(=O)[C@H](C(C)C)NC(=O)[C@@H]2CCCN2C(=O)[C@H](C(C)C)NC(=O)[C@@H](CCCNC(=N)N)NC(=O)[C@H](CC(=O)O)NC(=O)[C@H](Cc2ccccc2)NC(=O)CN(C)C(=O)[C@H](Cc2ccc(-c3ccc(NC(=O)c4ccccc4)cc3)cc2)NC(=O)[C@H](Cc2ccc(-c3ccccc3)cc2)NC(=O)[C@H](CN2CCOCC2)NC(=O)CSC[C@@H](C(=O)NCC(N)=O)NC1=O [Example 491] ({CH2CO}-[Ala(morpholin-4-yl)][Bip][Bip(4'-NHBz)][Sar]FD[dR]VPVHLCG-NH2; thioether N-13) | 50 to 200 nM
3 | CC(C)C[C@@H]1NC(=O)[C@H](CCCNC(=N)N)NC(=O)[C@H](C(C)C)NC(=O)[C@@H]2CCCN2C(=O)[C@H](C(C)C)NC(=O)[C@@H](CCCNC(=N)NCc2ccc(CN)cc2)NC(=O)[C@H](CC(=O)O)NC(=O)[C@@H]2CCCN2C(=O)CN(C)C(=O)[C@H](Cc2ccc(-c3ccc(NC(=O)c4nn(CC(=O)O)c5ccccc45)cc3)cc2)NC(=O)[C@H](Cc2ccc(-c3ccccc3)cc2)NC(=O)[C@H](CN2CCOCC2)NC(=O)CSC[C@@H](C(=O)NCC(N)=O)NC1=O [Example 501] ({CH2CO}-[Ala(morpholin-4-yl)][Bip][Bip(4'-NH)](Indazole3carbonyl(1-CH2COOH))[Sar]PD[X28]VPVRLCG-NH2; thioether N-13) | 50 to 200 nM
4 | CC[C@H](C)[C@@H]1NC(=O)[C@@H](CCCNC(=N)N)NC(=O)[C@H](CC(=O)O)NC(=O)[C@H](Cc2cnc[nH]2)NC(=O)CN(C)C(=O)[C@H](Cc2ccc(-c3ccc(NC(=O)c4cccc(CC(=O)OC)c4)cc3)cc2)NC(=O)[C@H](Cc2ccc(-c3ccccc3)cc2)NC(=O)[C@H](C(C)(C)C)NC(=O)CSC[C@@H](C(=O)NCC(N)=O)NC(=O)[C@H](CC(C)C)NC(=O)[C@H](Cc2c[nH]cn2)NC(=O)[C@H](C(C)C)NC(=O)[C@@H]2CCCN2C1=O [Example 502] ({CH2CO}-[Tle][Bip][Bip(4'-NH)](X62)[Sar]HD[dR]IPVHLCG-NH2; thioether N-13) | < 50 nM
5 | CC[C@H](C)[C@@H]1NC(=O)[C@@H](CCCNC(=N)N)NC(=O)[C@H](CC(=O)O)NC(=O)[C@H](Cc2cnc[nH]2)NC(=O)CN(C)C(=O)[C@H](Cc2ccc(-c3ccc(NC(=O)c4cccc(CC(=O)OC)c4)cc3)cc2)NC(=O)[C@H](Cc2ccc(-c3ccc(C(=O)O)cc3)cc2)NC(=O)[C@H](CC2CCCCC2)NC(=O)CSC[C@@H](C(=O)NCC(N)=O)NC(=O)[C@H](CC(C)C)NC(=O)[C@H](Cc2c[nH]cn2)NC(=O)[C@H](C(C)C)NC(=O)[C@@H]2CCCN2C1=O [Example 503] ({CH2CO}-[Cha][Bip(4'-COOH)][Bip(4'-NH)](X62)[Sar]HD[dR]IPVHLCG-NH2; thioether N-13) | < 50 nM

Same assay, conditions: HEK-Blue-CD40L cells, NF-kB-driven secreted alkaline phosphatase reporter; TNFα 0.5 ng/ml; 18 h; read-out: TNF induced HEK-Blue assay IC50 value

Row | IC50 | SMILES
6 | < 50 nM | CC(C)C[C@@H]1NC(=O)[C@H](Cc2cnc[nH]2)NC(=O)[C@H](C(C)C)NC(=O)[C@@H]2CCCN2C(=O)[C@H](C(C)C)NC(=O)[C@@H](CCCNC(=N)N)NC(=O)[C@H](CC(=O)O)NC(=O)[C@H](Cc2cnc[nH]2)NC(=O)CN(C)C(=O)[C@H](Cc2ccc(-c3ccc(NC(=O)c4ccc(OCC(=O)O)cc4)cc3)cc2)NC(=O)[C@H](Cc2ccc(-c3ccccc3)cc2)NC(=O)[C@H](CC2CCCCC2)NC(=O)CSC[C@@H](C(=O)NCC(N)=O)NC1=O [Example 489] ({CH2CO}-[Cha][Bip][Bip(4'-NH)](Benzoyl(4-OCH2COOH))[Sar]HD[dR]VPVHLCG-NH2; thioether N-13)
7 | < 50 nM | CC(C)C[C@@H]1NC(=O)[C@H](Cc2cnc[nH]2)NC(=O)[C@H](C(C)C)NC(=O)[C@@H]2CCCN2C(=O)[C@H](C(C)C)NC(=O)[C@@H](CCCNC(=N)N)NC(=O)[C@H](CC(=O)O)NC(=O)[C@H](Cc2ccccc2)NC(=O)CN(C)C(=O)[C@H](Cc2ccc(-c3ccc(NC(=O)c4ccc(OCC(=O)O)cc4)cc3)cc2)NC(=O)[C@H](Cc2ccc(-c3ccccc3)cc2)NC(=O)[C@H](CN2CCOCC2)NC(=O)CSC[C@@H](C(=O)NCC(N)=O)NC1=O [Example 492] ({CH2CO}-[Ala(morpholin-4-yl)][Bip][Bip(4'-NH)](Benzoyl(4-OCH2COOH))[Sar]FD[dR]VPVHLCG-NH2; thioether N-13)
8 | 50 to 200 nM | CC(C)C[C@@H]1NC(=O)[C@H](Cc2cnc[nH]2)NC(=O)[C@H](C(C)C)NC(=O)[C@@H]2CCCN2C(=O)[C@H](C(C)C)NC(=O)[C@@H](CCCNC(=N)N)NC(=O)[C@H](CC(=O)O)NC(=O)[C@@H]2CCCN2C(=O)CN(C)C(=O)[C@H](Cc2ccc(-c3ccc(NC(=O)c4ccc(OCC(=O)O)cc4)cc3)cc2)NC(=O)[C@H](Cc2ccc(-c3ccccc3)cc2)NC(=O)[C@H](CC2CCCCC2)NC(=O)CSC[C@@H](C(=O)NCC(N)=O)NC1=O [Example 493] ({CH2CO}-[Cha][Bip][Bip(4'-NH)](Benzoyl(4-OCH2COOH))[Sar]PD[dR]VPVHLCG-NH2; thioether N-13)
9 | < 50 nM | CC(C)C[C@@H]1NC(=O)[C@H](Cc2cnc[nH]2)NC(=O)[C@H](C(C)C)NC(=O)[C@@H]2CCCN2C(=O)[C@H](C(C)C)NC(=O)[C@@H](CCCNC(=N)N)NC(=O)[C@H](CC(=O)O)NC(=O)[C@H](Cc2ccccn2)NC(=O)CN(C)C(=O)[C@H](Cc2ccc(-c3ccc(NC(=O)c4ccc(OCC(=O)O)cc4)cc3)cc2)NC(=O)[C@H](Cc2ccc(-c3ccccc3)cc2)NC(=O)[C@H](CN2CCOCC2)NC(=O)CSC[C@@H](C(=O)NCC(N)=O)NC1=O [Example 494] ({CH2CO}-[Ala(morpholin-4-yl)][Bip][Bip(4'-NH)](Benzoyl(4-OCH2COOH))[Sar][2Pal]D[dR]VPVHLCG-NH2; thioether N-13)
10 | < 50 nM | CC(C)C[C@@H]1NC(=O)[C@H](Cc2cnc[nH]2)NC(=O)[C@H](C(C)C)NC(=O)[C@@H]2CCCN2C(=O)[C@H](C(C)C)NC(=O)[C@@H](CCCNC(=N)N)NC(=O)[C@H](CC(=O)O)NC(=O)[C@H](Cc2cnc[nH]2)NC(=O)CN(C)C(=O)[C@H](Cc2ccc(-c3ccc(NC(=O)c4ccc(OCC(=O)O)cc4)cc3)cc2)NC(=O)[C@H](Cc2ccc(-c3ccccc3)cc2)NC(=O)[C@H](CN2CCOCC2)NC(=O)CSC[C@@H](C(=O)NCC(N)=O)NC1=O [Example 495] ({CH2CO}-[Ala(morpholin-4-yl)][Bip][Bip(4'-NH)](Benzoyl(4-OCH2COOH))[Sar]HD[dR]VPVHLCG-NH2; thioether N-13)
11 | < 50 nM | CC[C@H](C)[C@@H]1NC(=O)[C@@H](CCCNC(=N)N)NC(=O)[C@H](CC(=O)O)NC(=O)[C@H](Cc2cnc[nH]2)NC(=O)CN(C)C(=O)[C@H](Cc2ccc(-c3ccc(NC(=O)c4cccc(CC(=O)O)c4)cc3)cc2)NC(=O)[C@H](Cc2ccc(-c3ccccc3)cc2)NC(=O)[C@H](C(C)(C)C)NC(=O)CSC[C@@H](C(=O)NCC(N)=O)NC(=O)[C@H](CC(C)C)NC(=O)[C@H](Cc2cnc[nH]2)NC(=O)[C@H](C(C)C)NC(=O)[C@@H]2CCCN2C1=O [Example 496] ({CH2CO}-[Tle][Bip][Bip(4'-NHCO-C6H4-3-CH2COOH)][Sar]HD[dR]IPVHLCG-NH2; thioether N-13)
12 | 50 to 200 nM | CC[C@H](C)[C@@H]1NC(=O)[C@@H](CCCNC(=N)NCc2cccc(CO)c2)NC(=O)[C@H](CC(=O)O)NC(=O)[C@H](Cc2cnc[nH]2)NC(=O)CN(C)C(=O)[C@H](Cc2ccc(-c3ccc(NC(=O)c4cccc(OCC(=O)O)c4)cc3)cc2)NC(=O)[C@H](Cc2ccc(-c3ccccc3)cc2)NC(=O)[C@H](CC2CCCCC2)NC(=O)CSC[C@@H](C(=O)NCC(N)=O)NC(=O)[C@H](CC(C)C)NC(=O)[C@H](Cc2cnc[nH]2)NC(=O)[C@H](C(C)C)NC(=O)[C@@H]2CCCN2C1=O [Example 498] ({CH2CO}-[Cha][Bip][Bip(4'-NH)](Benzoyl(3-OCH2COOH))[Sar]HD[dArg(ω-Bn(3-CH2OH))]IPVHLCG-NH2; thioether N-13)
13 | < 50 nM | CC[C@H](C)[C@@H]1NC(=O)[C@@H](CCCNC(=N)NCc2ccc3occc3c2)NC(=O)[C@H](CC(=O)O)NC(=O)[C@H](Cc2cnc[nH]2)NC(=O)CN(C)C(=O)[C@H](Cc2ccc(-c3ccc(NC(=O)c4cccc(OCC(=O)O)c4)cc3)cc2)NC(=O)[C@H](Cc2ccc(-c3ccccc3)cc2)NC(=O)[C@H](CC2CCCCC2)NC(=O)CSC[C@@H](C(=O)NCC(N)=O)NC(=O)[C@H](CC(C)C)NC(=O)[C@H](Cc2cnc[nH]2)NC(=O)[C@H](C(C)C)NC(=O)[C@@H]2CCCN2C1=O [Example 499] ({CH2CO}-[Cha][Bip][Bip(4'-NH)](Benzoyl(3-OCH2COOH))[Sar]HD[X7]IPVHLCG-NH2; thioether N-13)
14 | < 50 nM | CC(C)C[C@@H]1NC(=O)[C@H](CCCNC(=N)N)NC(=O)[C@H](C(C)C)NC(=O)[C@@H]2CCCN2C(=O)[C@H](C(C)C)NC(=O)[C@@H](CCCNC(=N)NCc2cccc(CO)c2)NC(=O)[C@H](CC(=O)O)NC(=O)[C@@H]2CCCN2C(=O)CN(C)C(=O)[C@H](Cc2ccc(-c3ccc(NC(=O)c4ccc(OCC(=O)O)cc4)cc3)cc2)NC(=O)[C@H](Cc2ccc(-c3ccccc3)cc2)NC(=O)[C@H](CN2CCOCC2)NC(=O)CSC[C@@H](C(=O)NCC(N)=O)NC1=O [Example 500] ({CH2CO}-[Ala(morpholin-4-yl)][Bip][Bip(4'-NH)](Benzoyl(4-OCH2COOH))[Sar]PD[dArg(ω-Bn(3-CH2OH))]VPVRLCG-NH2; thioether N-13)
15 | < 50 nM | CC[C@H](C)[C@@H]1NC(=O)[C@@H](CCCNC(=N)NCc2cccc(CO)c2)NC(=O)[C@H](CC(=O)O)NC(=O)[C@H](Cc2cnc[nH]2)NC(=O)CN(C)C(=O)[C@H](Cc2ccc(-c3ccc(NC(=O)c4cccc(CC(=O)O)c4)cc3)cc2)NC(=O)[C@H](Cc2ccc(-c3ccccc3)cc2)NC(=O)[C@H](CC2CCCCC2)NC(=O)CSC[C@@H](C(=O)NCC(N)=O)NC(=O)[C@H](CC(C)C)NC(=O)[C@H](Cc2c[nH]cn2)NC(=O)[C@H](C(C)C)NC(=O)[C@@H]2CCCN2C1=O [Example 504] ({CH2CO}-[Cha][Bip][Bip(4'-NHCO-C6H4-3-CH2COOH)][Sar]HD[dArg(ω-Bn(3-CH2OH))]IPVHLCG-NH2; thioether N-13)
